Reference: ChEMBL document CHEMBL2176932, “De novo cyclic pseudopeptides containing aza-β3-amino acids exhibiting antimicrobial activities” (J Med Chem, 2012)
In brackets after ≈: the same amount, converted by molar mass.

Assays:
[1] = Selectivity ratio of HC50 for sheep RBC to MIC for Staphylococcus aureus ATCC 25923; type: functional
[2] = test system: Aeromonas caviae; test: Antibacterial activity against Aeromonas caviae ATCC 15648 after 48 hrs by microtiter broth dilution method; type: functional; details: ATCC 15648, 48 h
[3] = test system: Klebsiella aerogenes; test: Antibacterial activity against Enterobacter aerogenes ATCC 13048 after 48 hrs by microtiter broth dilution method; type: functional; details: ATCC 13048, 48 h
[4] = test system: Streptococcus equinus; test: Antibacterial activity against Streptococcus equinus ATCC 5623 after 48 hrs by microtiter broth dilution method; type: functional; details: ATCC 5623, 48 h
[5] = test system: Escherichia coli; test: Antibacterial activity against Escherichia coli ATCC 25922 after 48 hrs by microtiter broth dilution method; type: functional; details: ATCC 25922, 48 h
[6] = Half life in bovine serum; type: ADME, cell-free, Bos taurus; details: cattle
[7] = test system: Staphylococcus aureus; test: Antibacterial activity against Staphylococcus aureus ATCC 25923 after 48 hrs by microtiter broth dilution method; type: functional; details: ATCC 25923, 48 h
[8] = test system: Lactococcus garvieae; test: Antibacterial activity against Lactococcus garvieae ATCC 43921 after 48 hrs by microtiter broth dilution method; type: functional; details: ATCC 43921, 48 h
[9] = Toxicity in sheep RBC assessed as hemolytic activity after 1 hr; type: cell-based, Ovis aries, Erythrocyte; details: sheep red blood cells
[10] = test system: Pseudomonas aeruginosa; test: Antibacterial activity against Pseudomonas aeruginosa ATCC 27853 after 48 hrs by microtiter broth dilution method; type: functional; details: ATCC 27853, 48 h
[11] = test system: Salmonella enterica; test: Antibacterial activity against Salmonella enterica ATCC 13076 after 48 hrs by microtiter broth dilution method; type: functional; details: ATCC 13076, 48 h
[12] = test system: Enterococcus faecalis; test: Antibacterial activity against Enterococcus faecalis CIP 186 after 48 hrs by microtiter broth dilution method; type: functional; details: CIP 186, 48 h
[13] = test system: Micrococcus luteus; test: Antibacterial activity against Micrococcus luteus ATCC 10240 after 48 hrs by microtiter broth dilution method; type: functional; details: ATCC 10240, 48 h
[14] = test system: Listeria monocytogenes; test: Antibacterial activity against Listeria monocytogenes SOR 100 after 48 hrs by microtiter broth dilution method; type: functional; details: SOR 100, 48 h
[15] = test system: Priestia megaterium; test: Antibacterial activity against Bacillus megaterium ATCC 10778 after 48 hrs by microtiter broth dilution method; type: functional; details: ATCC 10778, 48 h
[16] = Toxicity in sheep RBC assessed as hemolytic activity at 100 uM after 1 hr; type: cell-based, Ovis aries, Erythrocyte; details: sheep red blood cells, read-out: Activity
[17] = Selectivity ratio of MHC for sheep RBC to MIC for Staphylococcus aureus ATCC 25923; type: functional
[18] = test system: Klebsiella oxytoca; test: Antibacterial activity against Klebsiella oxytoca CIP 7932 after 48 hrs by microtiter broth dilution method; type: functional; details: CIP 7932, 48 h
[19] = Selectivity ratio of MHC for sheep RBC to MIC for Escherichia coli ATCC 25922; type: functional
[20] = Selectivity ratio of HC50 for sheep RBC to MIC for Escherichia coli ATCC 25922; type: functional

Structure (SMILES)	MIC [2] [µM]	MIC [3] [µM]	MIC [4] [µM]	MIC [5] [µM]	half-life [6] [h]	MIC [7] [µM]	MIC [8] [µM]	MIC [10] [µM]	MIC [11] [µM]	MIC [12] [µM]	MIC [13] [µM]	MIC [14] [µM]	MIC [15] [µM]	MIC [18] [µM]	Selectivity ratio [1]	HC50 at 1 h [9] [µM]	hemolysis at 1 h, 100 µM [16] [%]	Selectivity ratio [17]	Selectivity ratio [19]	Selectivity ratio [20]
CC(C)C[C@@H]1NC(=O)CN(Cc2ccc(-c3ccccc3)cc2)NC(=O)[C@H](CC(C)C)NC(=O)CN(Cc2ccc(-c3ccccc3)cc2)NC(=O)[C@H](CCCCN)NC(=O)CN(CCCCN)NC1=O	> 100	25 (≈ 24.4 µg/mL)	1.56 (≈ 1.52 µg/mL)	12.5 (≈ 12.2 µg/mL)		1.56 (≈ 1.52 µg/mL)	3.12 (≈ 3.04 µg/mL)	12.5 (≈ 12.2 µg/mL)	100 (≈ 97.4 µg/mL)	6.25 (≈ 6.09 µg/mL)	0.78 (≈ 0.76 µg/mL)	1.56 (≈ 1.52 µg/mL)	0.78 (≈ 0.76 µg/mL)	25 (≈ 24.4 µg/mL)	9.6	15	90	1	0.12	1.2
N=C(N)NCCC[C@@H]1NC(=O)CN(CCCCN)NC(=O)CN(Cc2ccc3ccccc3c2)NC(=O)[C@H](Cc2ccccc2)NC(=O)CN(Cc2ccc3ccccc3c2)NC1=O	> 100	100 (≈ 87.1 µg/mL)	12.5 (≈ 10.9 µg/mL)	100 (≈ 87.1 µg/mL)		50 (≈ 43.6 µg/mL)	100 (≈ 87.1 µg/mL)	50 (≈ 43.6 µg/mL)	100 (≈ 87.1 µg/mL)	> 100	6.25 (≈ 5.44 µg/mL)	25 (≈ 21.8 µg/mL)	3.12 (≈ 2.72 µg/mL)	> 100	2	> 100	1	2	1	1
CC[C@H](C)[C@H](NC(=O)CN)C(=O)NCC(=O)N[C@@H](C)C(=O)N[C@H](C(=O)N[C@@H](CC(C)C)C(=O)N[C@@H](CCCCN)C(=O)N[C@H](C(=O)N[C@@H](CC(C)C)C(=O)N[C@H](C(=O)N[C@H](C(=O)NCC(=O)N[C@@H](CC(C)C)C(=O)N1CCC[C@H]1C(=O)N[C@@H](C)C(=O)N[C@@H](CC(C)C)C(=O)N[C@H](C(=O)N[C@@H](CO)C(=O)N[C@@H](Cc1c[nH]c2ccccc12)C(=O)N[C@H](C(=O)N[C@@H](CCCCN)C(=O)N[C@@H](CCCNC(=N)N)C(=O)N[C@@H](CCCCN)C(=O)N[C@@H](CCCNC(=N)N)C(=O)N[C@@H](CCC(N)=O)C(=O)N[C@@H](CCC(N)=O)C(N)=O)[C@@H](C)CC)[C@@H](C)CC)[C@@H](C)O)[C@@H](C)O)C(C)C)C(C)C [MELITTIN]	> 100	12.5 (≈ 35.6 µg/mL)	3.12 (≈ 8.88 µg/mL)		0.06		6.25 (≈ 17.8 µg/mL)		25 (≈ 71.2 µg/mL)	12.5 (≈ 35.6 µg/mL)	1.56 (≈ 4.44 µg/mL)		6.25 (≈ 17.8 µg/mL)	25 (≈ 71.2 µg/mL)						

Further lines, with some results ahead:

MIC [2] [µM]	MIC [3] [µM]	MIC [4] [µM]	MIC [5] [µM]	half-life [6] [h]	MIC [7] [µM]	MIC [8] [µM]	MIC [10] [µM]	MIC [11] [µM]	MIC [12] [µM]	MIC [13] [µM]	MIC [14] [µM]	MIC [15] [µM]	MIC [18] [µM]	Structure (SMILES)	Selectivity ratio [1]	HC50 at 1 h [9] [µM]	hemolysis at 1 h, 100 µM [16] [%]	Selectivity ratio [17]	Selectivity ratio [19]	Selectivity ratio [20]
> 100	> 100	6.25 (≈ 6.33 µg/mL)	> 100	> 2	6.25 (≈ 6.33 µg/mL)	6.25 (≈ 6.33 µg/mL)	25 (≈ 25.3 µg/mL)	> 100	12.5 (≈ 12.7 µg/mL)	3.12 (≈ 3.16 µg/mL)	3.12 (≈ 3.16 µg/mL)	6.25 (≈ 6.33 µg/mL)	> 100	CCCCCCCCN1CC(=O)N[C@@H](Cc2c[nH]c3ccccc23)C(=O)NN(CCCCCCCC)CC(=O)N[C@@H](CCCCN)C(=O)NN(CCCCN)CC(=O)N[C@@H](Cc2c[nH]c3ccccc23)C(=O)N1	14.4	90	55	1		
> 100	> 100	12.5 (≈ 13.3 µg/mL)	> 100	> 2	25 (≈ 26.6 µg/mL)	50 (≈ 53.2 µg/mL)	> 100	> 100	12.5 (≈ 13.3 µg/mL)	12.5 (≈ 13.3 µg/mL)	12.5 (≈ 13.3 µg/mL)	12.5 (≈ 13.3 µg/mL)	> 100	CCCCCCCCCCCCN1CC(=O)N[C@@H](Cc2c[nH]c3ccccc23)C(=O)NN(Cc2cccc3ccccc23)CC(=O)N[C@@H](CCCCN)C(=O)NN(CCCCN)CC(=O)N[C@@H](CC2CCCCC2)C(=O)N1	2	50	62	0.12		
